Key:
Assay in all cases: in vitro antibacterial activity, agar dilution MIC
Format in all cases: cell-based
[1] = tested on: Enterococcus faecium ATCC 8043; details: organism code II, BHI agar, 35-37 °C, 20 to 24 hours
Experimental: (§1) Erythromycin A was used for this purpose.
(§2) After incubation, each plate was visually inspected.

Escherichia coli JUHL = details: organism code QQ, BHI agar, 35-37 °C, 20 to 24 hours
Experimental: as §1, §2

Escherichia coli SS = details: organism code RR, BHI agar, 35-37 °C, 20 to 24 hours
Experimental: as §1, §2

[2] = tested on: Haemophilis Influenzae DILL AMP R; details: organism code WW, BHI agar, 35-37 °C, 20 to 24 hours
Experimental: as §1, §2

[3] = tested on: Micrococcus luteus ATCC 4698; details: organism code PP, BHI agar, 35-37 °C, 20 to 24 hours
Experimental: as §1, §2

[4] = tested on: Micrococcus luteus ATCC 9341; details: organism code OO, BHI agar, 35-37 °C, 20 to 24 hours
Experimental: as §1, §2

[5] = tested on: Nocardia Asteroides ATCC9970; details: organism code VV, BHI agar, 35-37 °C, 20 to 24 hours
Experimental: as §1, §2

[6] = tested on: Staphylococcus aureus CMX 553; details: organism code FF, BHI agar, 35-37 °C, 20 to 24 hours
Experimental: as §1, §2

[7] = tested on: Staphylococcus aureus CMX 642A; details: organism code DD, BHI agar, 35-37 °C, 20 to 24 hours
Experimental: as §1, §2

[8] = tested on: Staphylococcus aureus NCTC10649M; details: organism code EE, BHI agar, 35-37 °C, 20 to 24 hours
Experimental: as §1, §2

[9] = tested on: Staphylococcus epidermidis 3519; details: organism code HH, BHI agar, 35-37 °C, 20 to 24 hours
Experimental: as §1, §2

[10] = tested on: Streptococcus Pheumoniae 5649; details: organism code ZZA, BHI agar, 35-37 °C, 20 to 24 hours
Experimental: as §1, §2

[11] = tested on: Streptococcus Pheumoniae GYR 1171; details: organism code YY, BHI agar, 35-37 °C, 20 to 24 hours
Experimental: as §1, §2

[12] = tested on: Staphylococcus aureus ATCC 6538P; set-up: unit not given here; details: organism code AA, BHI agar, 35-37 °C, 20 to 24 hours
Experimental: as §1, §2

[13] = tested on: Streptococcus Pheumoniae ATCC6303; set-up: unit not given here; details: organism code XX, BHI agar, 35-37 °C, 20 to 24 hours
Experimental: as §1, §2

[14] = tested on: Streptococcus agalactiae CMX 508; set-up: unit not given here; details: organism code KK, BHI agar, 35-37 °C, 20 to 24 hours
Experimental: as §1, §2

[15] = tested on: Streptococcus bovis A-5169; set-up: unit not given here; details: organism code JJ, BHI agar, 35-37 °C, 20 to 24 hours
Experimental: as §1, §2

[16] = tested on: Streptococcus pyogenes EES61; set-up: unit not given here; details: organism code LL, BHI agar, 35-37 °C, 20 to 24 hours
Experimental: as §1, §2

Candida albicans CCH 442 = details: organism code TT, BHI agar, 35-37 °C, 20 to 24 hours
In short: (§3)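 Step one: prepare 12 BHI agar plates with successive aqueous dilutions of test compound. Step two: inoculate by replicator block at 1:100 (1:10 for Streptococcus and other slow growers). Step three: incubate alongside drug-free and same-class reference-compound plates, then score MIC visually.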

Escherichia coli DC-2 = details: organism code SS, BHI agar, 35-37 °C, 20 to 24 hours
In short: as §3

[17] = tested on: Staphylococcus aureus 1775; details: organism code GG, BHI agar, 35-37 °C, 20 to 24 hours
In short: as §3

[18] = tested on: Staphylococcus aureus A-5278; details: organism code CC, BHI agar, 35-37 °C, 20 to 24 hours
In short: as §3

[19] = tested on: Streptococcus Pheumoniae 5979; details: organism code ZZ, BHI agar, 35-37 °C, 20 to 24 hours
In short: as §3

[20] = tested on: Streptococcus pyogenes 930; details: organism code MM, BHI agar, 35-37 °C, 20 to 24 hours
In short: as §3

[21] = tested on: Streptococcus pyogenes PIU 2548; details: organism code NN, BHI agar, 35-37 °C, 20 to 24 hours
In short: as §3

[22] = tested on: Mycobacterium smegmatis ATCC 114; set-up: unit not given here; details: organism code UU, BHI agar, 35-37 °C, 20 to 24 hours
In short: as §3

[23] = tested on: Staphylococcus aureus A5177; set-up: unit not given here; details: organism code BB, BHI agar, 35-37 °C, 20 to 24 hours
In short: as §3

CC[C@H]1OC(=O)[C@H](C)C(=O)[C@H](C)[C@@H](O[C@@H]2O[C@H](C)C[C@H](N(C)C)[C@H]2O)[C@@]2(C)C[C@@H](C)C(=O)[C@H](C)[C@H]3N(CC=CCO2)C(=O)O[C@]13C [Example 16, Compound of Formula (II), R^p is H, m is 1, A is absent, B is absent, D is absent, E is-(CH2)r-CH=CH-, r is 0, n is 1]
minimum inhibitory concentration (MIC) [1]: 0.2
minimum inhibitory concentration (MIC) (Escherichia coli JUHL): >100
minimum inhibitory concentration (MIC) (Escherichia coli SS): 0.78
minimum inhibitory concentration (MIC) [2]: 32
minimum inhibitory concentration (MIC) [3]: 0.39
minimum inhibitory concentration (MIC) [4]: 0.2
minimum inhibitory concentration (MIC) [5]: 0.39
minimum inhibitory concentration (MIC) [6]: 0.39
minimum inhibitory concentration (MIC) [7]: 0.39
minimum inhibitory concentration (MIC) [8]: 0.39
minimum inhibitory concentration (MIC) [9]: 0.39
minimum inhibitory concentration (MIC) [10]: 0.5
minimum inhibitory concentration (MIC) [11]: 0.25
minimum inhibitory concentration (MIC) [12]: 0.39
minimum inhibitory concentration (MIC) [13]: 0.25
minimum inhibitory concentration (MIC) [14]: 0.2
minimum inhibitory concentration (MIC) [15]: 0.2
minimum inhibitory concentration (MIC) [16]: 0.2
minimum inhibitory concentration (MIC) (Candida albicans CCH 442): >100
minimum inhibitory concentration (MIC) (Escherichia coli DC-2): >100
minimum inhibitory concentration (MIC) [17]: >100
minimum inhibitory concentration (MIC) [18]: >100
minimum inhibitory concentration (MIC) [19]: >128
minimum inhibitory concentration (MIC) [20]: >100
minimum inhibitory concentration (MIC) [21]: 0.39
minimum inhibitory concentration (MIC) [22]: 6.2
minimum inhibitory concentration (MIC) [23]: 0.39

CC[C@H]1OC(=O)[C@H](C)C(=O)[C@H](C)[C@@H](O[C@@H]2O[C@H](C)C[C@H](N(C)C)[C@H]2O)[C@@]2(C)C[C@@H](C)C(=O)[C@H](C)[C@H]3N(CCOCc4ccccc4C=CCO2)C(=O)O[C@]13C [Example 12, Compound of Formula (II), R^p is H, m is 2, A is -O-, B is-(CH2)q-, q is 1, D is 1,2-phenylene, E is-(CH2)r-CH=CH-, r is 0, n is 1]
minimum inhibitory concentration (MIC) [1]: 0.1
minimum inhibitory concentration (MIC) (Escherichia coli JUHL): >100
minimum inhibitory concentration (MIC) (Escherichia coli SS): 1.56
minimum inhibitory concentration (MIC) [2]: 16
minimum inhibitory concentration (MIC) [3]: 0.39
minimum inhibitory concentration (MIC) [4]: 0.2
minimum inhibitory concentration (MIC) [5]: 0.78
minimum inhibitory concentration (MIC) [6]: 0.78
minimum inhibitory concentration (MIC) [7]: 0.78
minimum inhibitory concentration (MIC) [8]: 0.78
minimum inhibitory concentration (MIC) [9]: 0.78
minimum inhibitory concentration (MIC) [10]: 1
minimum inhibitory concentration (MIC) [11]: 0.125
minimum inhibitory concentration (MIC) [12]: 0.78
minimum inhibitory concentration (MIC) [13]: 0.25
minimum inhibitory concentration (MIC) [14]: 0.1
minimum inhibitory concentration (MIC) [15]: 0.05
minimum inhibitory concentration (MIC) [16]: 0.05
minimum inhibitory concentration (MIC) (Candida albicans CCH 442): >100
minimum inhibitory concentration (MIC) (Escherichia coli DC-2): >100
minimum inhibitory concentration (MIC) [17]: >100
minimum inhibitory concentration (MIC) [18]: >100
minimum inhibitory concentration (MIC) [19]: 128
minimum inhibitory concentration (MIC) [20]: 50
minimum inhibitory concentration (MIC) [21]: 0.39
minimum inhibitory concentration (MIC) [22]: 0.78
minimum inhibitory concentration (MIC) [23]: 0.78

— patent EP1027361B1, “6,11-BRIDGED ERYTHROMYCIN DERIVATIVES” (Abbott Laboratories, priority 1997, dated 1999)
